From patent US20190133968A1, “Applications of benzophenones in preparation of drug” (SHANXI MEDICAL UNIVERSITY, priority 2016, published 2019)

Test system: DN rats
Assay: type II diabetic nephropathy (DN) rat model (high-sugar high-fat diet + streptozocin)
Type: in vivo, SD (Sprague Dawley) rats
Conditions: for BUN / CREA / Glycated hemoglobin / Urinary protein / mALB (microalbumin in urine) / ICAM-1 / IL-1β / IL-6 / MDA / NF-κB / SOD / T-AOC / TGF-β1 / TNF-α / VCAM-1 / Glucose (GLU) / HDL-C / LDL-C / TC / TG / UA / Kidney coefficient: gavage, 6 weeks; for Urinary protein / mALB (microalbumin in urine): 6-hour urine; for ICAM-1 / IL-1β / IL-6 / MDA / NF-κB / SOD / T-AOC / TGF-β1 / TNF-α / VCAM-1: renal tissues; for Glucose (GLU) / HDL-C / LDL-C / TC / TG / UA: serum; for Kidney coefficient: weights of two kidneys/body weight
Description: The solid dispersions are prepared through a solvent method, comprising steps of: respectively precisely weighing LM49, PVPK30 and tween80 with a weight ratio of 1:5:1, and A8, PVPK30 and tween80 with a weight ratio of 1:4:1; dissolving with appropriate absolute ethyl alcohol, continuously stirring, and uniformly mixing; placing on the water bath at 60° C., evaporating and removing the absolute ethyl alcohol, and obtaining a viscous material; placing in the freezer at −20° C., and freezing for 2 hours; taking out from the freezer, then placing in the vacuum drying oven, and drying for 24 hours; after becoming embrittlement, smashing and sieving with a sieve of 80 meshes, and then placing in the dryer for storage.
The healthy adult male SD rats (having a weight of 180-220 g) are fed with the high-sugar and high-fat diet for 4 weeks; the rats are fasting overnight; and streptozocin (STZ) of 40 mg/kg is intraperitoneally injected into the rats. The rats of normal control group are injected with the sodium citrate buffer of same volume; 72 hours later, the rats are fasting for 12 hours. […] During the administration period, the successfully established model rats are still fed with the high-sugar and high-fat diet, while the rats of the normal control group are fed with the normal diet.
After administration for 6 weeks, 6-hour urine of the rats is collected with the metabolism cage.
The rats are fasting overnight and anesthetized intraperitoneally, then the abdominal aorta blood thereof is drawn for measuring the related indexes. The two kidneys of each rat are washed with the normal saline; weights of the kidneys are recorded; and the kidney coefficient (weights of two kidneys/body weight) is calculated. The renal tissues (comprising the glomerulus and renal tubules) at the same part of the left kidney are cut lengthwise and immersed in the 10% neutral formalin for pathomorphology analysis, and the other parts of the left kidney are used for biochemical index measurement; the right kidney is used for mechanism research and stored in the freezer at −80° C.
After successfully establishing the model rats, expect the normal control group (ten rats), the remaining rats are randomly divided into eight groups, wherein each group has twelve rats. The eight groups are respectively the model group, the LM49 solid dispersion low-dose group (with the drug concentration of 3 mg/kg), the LM49 solid dispersion medium-dose group (with the drug concentration of 9 mg/kg), the LM49 solid dispersion high-dose group (with the drug concentration of 27 mg/kg), the A8 solid dispersion low-dose group (with the drug concentration of 3 mg/kg), the A8 solid dispersion medium-dose group (with the drug concentration of 9 mg/kg), the A8 solid dispersion high-dose group (with the drug concentration of 27 mg/kg), and the captopril control group (with the drug concentration of 15 mg/kg).
Administration Way: By Gavage.
The rats of the normal control group and the model group are administrated with the normal saline of 1.0 ml/100 g; the rats of the positive control group, the LM49 solid dispersion high-dose, medium-dose and low-dose groups and the A8 solid dispersion high-dose, medium-dose and low-dose groups are respectively administrated with the drugs of different concentrations, and the administration volume is 1.0 ml/100 g.
The solid dispersions are dissolved by the normal saline; and the rats of the positive control group are administrated with the 0.5% CMC-Na (sodium carboxymethyl cellulose) suspension.
The rats are administrated seven days a week, for totally six weeks.
The IBM SPSS Statistics 20 software is used for data processing, and the data is represented in x±s. The one-way analysis of variance (ANOVA) is adopted for comparison among the groups. According to the homogeneity test results of variance, if the variance is equal, the LSD (least significant difference) test is adopted; if the variance is unequal, the Dunnett's T3 test is adopted. […]

O=C(c1cc(Br)ccc1O)c1cc(O)c(O)cc1Br [LM49, 2,5′-dibromo-4,5,2′-trihydroxyldiphenylmethanone]
BUN (DN rats, high-dose 27 mg/kg): 10.66 ± 2.52 mmol/L
CREA (DN rats, high-dose 27 mg/kg): 55.12 ± 4.05 µmol/L
Glycated hemoglobin (DN rats, high-dose 27 mg/kg): 8.10 ± 1.50%
Urinary protein (DN rats, high-dose 27 mg/kg): 2.82 ± 0.54^□□▴◯● mg/6 h
mALB (microalbumin in urine) (DN rats, high-dose 27 mg/kg): 52.22 ± 7.46^□□▴▴ μg/6 h
ICAM-1 (DN rats, high-dose 27 mg/kg): 282.88 ± 59.07 pg/mgprog
IL-1β (DN rats, high-dose 27 mg/kg): 121.69 ± 16.12 pg/mgprog
IL-6 (DN rats, high-dose 27 mg/kg): 119.09 ± 11.51^□ pg/mgprog
MDA (DN rats, high-dose 27 mg/kg): 1.16 ± 0.19 nmol/mgprog
NF-κB (DN rats, high-dose 27 mg/kg): 215.39 ± 43.61^□□▴▴◯◯ pg/mgprog
SOD (DN rats, high-dose 27 mg/kg): 4.06 ± 0.78 U/mgprog
T-AOC (DN rats, high-dose 27 mg/kg): 1.37 ± 0.31 U/mgprog
TGF-β1 (DN rats, high-dose 27 mg/kg): 30.58 ± 5.83^□□▴▴ pg/mgprot
TNF-α (DN rats, high-dose 27 mg/kg): 279.29 ± 41.89^□ pg/mgprog
VCAM-1 (DN rats, high-dose 27 mg/kg): 26.85 ± 5.63 pg/mgprog
Glucose (GLU) (DN rats, high-dose 27 mg/kg): 10.73 ± 2.89^□□▴◯ mmol/L
HDL-C (DN rats, high-dose 27 mg/kg): 1.17 ± 0.24 mmol/L
LDL-C (DN rats, high-dose 27 mg/kg): 1.61 ± 0.54^□□ mmol/L
TC (DN rats, high-dose 27 mg/kg): 3.00 ± 0.79^□□ mmol/L
TG (DN rats, high-dose 27 mg/kg): 0.54 ± 0.13^□□ mmol/L
UA (DN rats, high-dose 27 mg/kg): 29.41 ± 7.23^□□●● μmol/L
Kidney coefficient (DN rats, high-dose 27 mg/kg): 1.00 ± 0.09%
lesions of the renal tissues (DN rats, kidney pathology (HE, Masson staining)): effectively reduce the lesions of the renal tissues
BUN (DN rats, low-dose 3 mg/kg): 11.59 ± 2.78 mmol/L
CREA (DN rats, low-dose 3 mg/kg): 54.11 ± 3.50 µmol/L
Glycated hemoglobin (DN rats, low-dose 3 mg/kg): 9.01 ± 0.61%
Urinary protein (DN rats, low-dose 3 mg/kg): 5.81 ± 1.42^□□ mg/6 h
mALB (microalbumin in urine) (DN rats, low-dose 3 mg/kg): 143.47 ± 33.28^□□●● μg/6 h
ICAM-1 (DN rats, low-dose 3 mg/kg): 384.02 ± 100.59 pg/mgprog
IL-1β (DN rats, low-dose 3 mg/kg): 158.77 ± 43.38 pg/mgprog
IL-6 (DN rats, low-dose 3 mg/kg): 195.42 ± 2.34 pg/mgprog
MDA (DN rats, low-dose 3 mg/kg): 1.65 ± 0.25 nmol/mgprog
NF-κB (DN rats, low-dose 3 mg/kg): 2415.59 ± 515.30 pg/mgprog
SOD (DN rats, low-dose 3 mg/kg): 5.66 ± 1.87 U/mgprog
T-AOC (DN rats, low-dose 3 mg/kg): 1.52 ± 0.58 U/mgprog
TGF-β1 (DN rats, low-dose 3 mg/kg): 100.46 ± 25.56 pg/mgprot
TNF-α (DN rats, low-dose 3 mg/kg): 573.35 ± 150.75 pg/mgprog
VCAM-1 (DN rats, low-dose 3 mg/kg): 39.34 ± 10.56 pg/mgprog
Glucose (GLU) (DN rats, low-dose 3 mg/kg): 19.94 ± 6.09^□□ mmol/L
HDL-C (DN rats, low-dose 3 mg/kg): 1.27 ± 0.12 mmol/L
LDL-C (DN rats, low-dose 3 mg/kg): 1.90 ± 0.54^□□ mmol/L
TC (DN rats, low-dose 3 mg/kg): 3.28 ± 0.59^□□ mmol/L
TG (DN rats, low-dose 3 mg/kg): 0.38 ± 0.10^□□ mmol/L
UA (DN rats, low-dose 3 mg/kg): 26.01 ± 6.54^□□●● μmol/L
Kidney coefficient (DN rats, low-dose 3 mg/kg): 1.08 ± 0.09%
BUN (DN rats, medium-dose 9 mg/kg): 10.97 ± 3.01 mmol/L
CREA (DN rats, medium-dose 9 mg/kg): 55.25 ± 1.01 µmol/L
Glycated hemoglobin (DN rats, medium-dose 9 mg/kg): 8.59 ± 0.85%
Urinary protein (DN rats, medium-dose 9 mg/kg): 5.29 ± 0.61^□□ mg/6 h
mALB (microalbumin in urine) (DN rats, medium-dose 9 mg/kg): 125.38 ± 23.67^□□● μg/6 h
ICAM-1 (DN rats, medium-dose 9 mg/kg): 334.79 ± 55.46 pg/mgprog
IL-1β (DN rats, medium-dose 9 mg/kg): 146.20 ± 16.12 pg/mgprog
IL-6 (DN rats, medium-dose 9 mg/kg): 168.44 ± 30.33 pg/mgprog
MDA (DN rats, medium-dose 9 mg/kg): 1.92 ± 0.34 nmol/mgprog
NF-κB (DN rats, medium-dose 9 mg/kg): 1017.81 ± 239.12^□▴●● pg/mgprog
SOD (DN rats, medium-dose 9 mg/kg): 5.33 ± 1.01 U/mgprog
T-AOC (DN rats, medium-dose 9 mg/kg): 1.93 ± 0.43 U/mgprog
TGF-β1 (DN rats, medium-dose 9 mg/kg): 53.60 ± 11.60^□● pg/mgprot
TNF-α (DN rats, medium-dose 9 mg/kg): 436.04 ± 84.54 pg/mgprog
VCAM-1 (DN rats, medium-dose 9 mg/kg): 34.76 ± 5.04 pg/mgprog
Glucose (GLU) (DN rats, medium-dose 9 mg/kg): 18.58 ± 2.71^□□ mmol/L
HDL-C (DN rats, medium-dose 9 mg/kg): 1.16 ± 0.21 mmol/L
LDL-C (DN rats, medium-dose 9 mg/kg): 1.51 ± 0.48^□□ mmol/L
TC (DN rats, medium-dose 9 mg/kg): 2.71 ± 0.49^□□ mmol/L
TG (DN rats, medium-dose 9 mg/kg): 0.30 ± 0.11^□□ mmol/L
UA (DN rats, medium-dose 9 mg/kg): 25.63 ± 5.83^□□●● μmol/L
Kidney coefficient (DN rats, medium-dose 9 mg/kg): 1.09 ± 0.14%
effect on resisting the DN of rats (overall summary in words): obvious effect on resisting the DN of rats
